Measurements taken from patent publication US5055448A, “Linear derivatives of arginine vasopressin antagonists” (Medical College of Ohio, priority 1987, dated 1991).
Numbered stars: 1 amine (or outer) side, 2 acyl side, 3 side chain; on linkers, the order of the positions; unused ones are H or OH. Square brackets hold non-standard residues; d marks the D form. Peptide text beside a SMILES is read from it. * marks the point of attachment. Acetyl(1-adamantyl) = O=C(CC12CC3CC(CC(C3)C1)C2)*; Cyclohexylacetyl(1-SH) = O=C(CC1(S)CCCCC1)*; Ethylenediamine = C(CN[*:2])N[*:1]; Orn = NCCC[C@H](N)C(=O)O; Abu = CC[C@H](N)C(=O)O; X1 = CCC(S)(CC)CC(=O)*; Propionyl = CCC(=O)*

How the values were obtained:
[1] = system: vasopressor response to arginine vasopressin; conditions: in vivo
Description: Antagonism to the vasopressor response was estimated in accordance with […] et al., J. Med. Chem., vol. 17 (1974) at 969. The values are expressed as pA2 values, defined as in Schild et al., Br. J. Pharmacol., vol. 2 (1947) at 189. Antagonistic potencies were determined and expressed as "effective doses" and pA2 values. The "effective dose" is defined as the dose (in nanomoles per kilogram) that reduces the response seen from 2x units of agonist injected 20 min after the dose of antagonist to the response with 1x units of agonist. Estimated in vivo "pA2 " values represent the negative logarithms of the effective doses, divided by the estimated volume of distribution (67 ml/kg).

[2] = system: antidiuretic response to arginine vasopressin; design: species or system rats; conditions: rat, in vivo
Description: Activity as antidiuretic agonists was determined by intravenous injection of the compounds being evaluated in ethanol-anesthesized water-loaded rats in accordance with Sawyer, Endocrinology, vol. 63 (1958) at 694. Antagonism of the antidiuretic response to subsequent injections of arginine vasopressin was tested by the method of Sawyer et al., Science, vol. 212 (1981) at 49. Antagonistic potencies were determined and expressed as "effective doses" and pA2 values. The "effective dose" is defined as the dose (in nanomoles per kilogram) that reduces the response seen from 2x units of agonist injected 20 min after the dose of antagonist to the response with 1x units of agonist. Estimated in vivo "pA2 " values represent the negative logarithms of the effective doses, divided by the estimated volume of distribution (67 ml/kg).

| SMILES | Antivasopressor pA2 [1] | Antiantidiuretic pA2 [2] |
| --- | --- | --- |
| CCOc1ccc(C[C@@H](NC(=O)CC23CC4CC(CC(C4)C2)C3)C(=O)N[C@@H](Cc2ccccc2)C(=O)N[C@H](C(=O)N[C@@H](CC(N)=O)C(=O)N[C@@H](CCCCN)C(=O)N2CCC[C@H]2C(=O)N[C@@H](CCCNC(=N)N)C(N)=O)C(C)C)cc1 [(1-adamantyl)acetyl-D-(O-ethyl)-tyrosyl-phenylalanyl-valyl-asaparaginyl-lysyl-prolyl-argininamide] ({Acetyl(1-adamantyl)}-[dY](Et)FVNKPR-NH2) | 8.02 ± 0.06 | 7.81 ± 0.08 |
| CCOc1ccc(C[C@@H](NC(=O)CC23CC4CC(CC(C4)C2)C3)C(=O)N[C@@H](Cc2ccccc2)C(=O)N[C@H](C(=O)N[C@@H](CC(N)=O)C(=O)N[C@@H](CC)C(=O)N2CCC[C@H]2C(=O)N[C@H](CCCNC(=N)N)C(=O)N[C@@H](CCCNC(=N)N)C(N)=O)C(C)C)cc1 [(1-adamantyl)acetyl-D-(O-ethyl)tyrosyl-phenylalanyl-valyl-asparaginyl-(2-amino)butyryl-prolyl-D-arginyl-argininamide] ({Acetyl(1-adamantyl)}-[dY](Et)FVN[Abu]P[dR]R-NH2) | 7.49 ± 0.06 | 7.85 ± 0.08 |
| CCOc1ccc(C[C@@H](NC(=O)CC23CC4CC(CC(C4)C2)C3)C(=O)N[C@@H](Cc2ccccc2)C(=O)N[C@H](C(=O)N[C@@H](CC(N)=O)C(=O)N[C@@H](CC)C(=O)N2CCC[C@H]2C(=O)N[C@@H](CCCNC(=N)N)C(N)=O)C(C)C)cc1 [(1-adamantyl)acetyl-D-(O-ethyl)tyrosyl-phenylalanyl-valyl-asparaginyl-(2-amino)butyryl-prolyl-argininamide] ({Acetyl(1-adamantyl)}-[dY](Et)FVN[Abu]PR-NH2) | 7.43 ± 0.06 | 7.20 ± 0.04 |
| CCOc1ccc(C[C@@H](NC(=O)CC23CC4CC(CC(C4)C2)C3)C(=O)N[C@@H](Cc2ccccc2)C(=O)N[C@H](C(=O)N[C@@H](CC(N)=O)C(=O)N[C@@H](CC)C(=O)N2CCC[C@H]2C(=O)N[C@@H](CCCNC(=N)N)C(=O)NCCN)C(C)C)cc1 [(1-adamantyl)acetyl-D-(O-ethyl)tyrosyl-phenylalanyl-valyl-asparaginyl-(2-amino)butyryl-prolyl-arginine-N-(2-aminoethyl)amide] ({Acetyl(1-adamantyl)}-[dY](Et)FVN[Abu]PR-Ethylenediamine) | 7.33 ± 0.09 | 7.71 ± 0.09 |
| CCOc1ccc(C[C@@H](NC(=O)CC23CC4CC(CC(C4)C2)C3)C(=O)N[C@@H](Cc2ccccc2)C(=O)N[C@H](C(=O)N[C@@H](CC(N)=O)C(=O)N[C@@H](CC)C(=O)N2CCC[C@H]2C(=O)N[C@@H](CCCNC(=N)N)C(=O)N[C@@H](C)C(N)=O)C(C)C)cc1 [(1-adamantyl)acetyl-D-(O-ethyl)tyrosyl-phenylalanyl-valyl-asparaginyl-(2-amino)butyryl-prolyl-arginyl-alaninamide] ({Acetyl(1-adamantyl)}-[dY](Et)FVN[Abu]PRA-NH2) | 7.18 ± 0.04 | 6.55 ± 0.04 |
| CCOc1ccc(C[C@@H](NC(=O)CC23CC4CC(CC(C4)C2)C3)C(=O)N[C@@H](Cc2ccccc2)C(=O)N[C@H](C(=O)N[C@@H](CC(N)=O)C(=O)N[C@@H](CC)C(=O)N2CCC[C@H]2C(=O)N[C@@H](CCCNC(=N)N)C(=O)N[C@@H](CCCNC(=N)N)C(N)=O)C(C)C)cc1 [(1-adamantyl)acetyl-D-(O-ethyl)tyrosyl-phenylalanyl-valyl-asparaginyl-(2-amino)butyryl-prolyl-arginyl-argininamide] ({Acetyl(1-adamantyl)}-[dY](Et)FVN[Abu]PRR-NH2) | 7.75 ± 0.07 | 8.11 ± 0.07 |
| CCOc1ccc(C[C@@H](NC(=O)CC23CC4CC(CC(C4)C2)C3)C(=O)N[C@@H](Cc2ccccc2)C(=O)N[C@H](C(=O)N[C@@H](CC(N)=O)C(=O)N[C@@H](CC)C(=O)N2CCC[C@H]2C(=O)N[C@@H](CCCNC(=N)N)C(=O)NCC(N)=O)C(C)C)cc1 [(1-adamantyl)acetyl-D-(O-ethyl)tyrosyl-phenylalanyl-valyl-asparaginyl-(2-amino)butyryl-prolyl-arginyl-glycinamide] ({Acetyl(1-adamantyl)}-[dY](Et)FVN[Abu]PRG-NH2) | 7.10 ± 0.07 | 7.50 ± 0.02 |
| CCOc1ccc(C[C@@H](NC(=O)CC23CC4CC(CC(C4)C2)C3)C(=O)N[C@@H](Cc2ccccc2)C(=O)N[C@H](C(=O)N[C@@H](CC(N)=O)C(=O)N[C@@H](CCCNC(=N)N)C(=O)N2CCC[C@H]2C(=O)N[C@@H](CCCNC(=N)N)C(N)=O)C(C)C)cc1 [(1-adamantyl)acetyl-D-(O-ethyl)tyrosyl-phenylalanyl-valyl-asparaginyl-arginyl-prolyl-argininamide] ({Acetyl(1-adamantyl)}-[dY](Et)FVNRPR-NH2) | 8.01 ± 0.05 | 7.73 ± 0.08 |
| CCOc1ccc(C[C@@H](NC(=O)CC23CC4CC(CC(C4)C2)C3)C(=O)N[C@@H](Cc2ccccc2)C(=O)N[C@H](C(=O)N[C@@H](CC(N)=O)C(=O)N[C@@H](CCCN)C(=O)N2CCC[C@H]2C(=O)N[C@@H](CCCNC(=N)N)C(N)=O)C(C)C)cc1 [(1-adamantyl)acetyl-D-(O-ethyl)tyrosyl-phenylalanyl-valyl-asparaginyl-ornithyl-prolyl-argininamide] ({Acetyl(1-adamantyl)}-[dY](Et)FVN[Orn]PR-NH2) | 7.33 ± 0.06 | 7.81 ± 0.10 |
| CCOc1ccc(C[C@@H](NC(=O)CC2(S)CCCCC2)C(=O)N[C@@H](Cc2ccccc2)C(=O)N[C@H](C(=O)N[C@@H](CC(N)=O)C(=O)N[C@@H](CC)C(=O)N2CCC[C@H]2C(=O)N[C@@H](CCCNC(=N)N)C(=O)NCC(N)=O)C(C)C)cc1 [(1-mercaptocyclohexyl)acetyl-D-(O-ethyl)tyrosyl-phenylalanyl-valyl-asparaginyl-(2-amino)butyryl-prolyl-arginyl-glycinamide] ({Cyclohexylacetyl(1-SH)}-[dY](Et)FVN[Abu]PRG-NH2) | 7.71 ± 0.05 | 7.42 ± 0.05 |
| CCOc1ccc(C[C@@H](NC(=O)CC2(S)CCCCC2)C(=O)N[C@@H](Cc2ccccc2)C(=O)N[C@H](C(=O)N[C@@H](CC(N)=O)C(=O)N[C@@H](CS)C(=O)N2CCC[C@H]2C(=O)N[C@@H](CCCNC(=N)N)C(=O)NCC(N)=O)C(C)C)cc1 [(1-mercaptocyclohexyl)acetyl-D-(O-ethyl)tyrosyl-phenylalanyl-valyl-asparaginyl-cysteinyl-prolyl-arginyl-glycinamide] ({Cyclohexylacetyl(1-SH)}-[dY](Et)FVNCPRG-NH2) | 7.51 ± 0.03 | 7.05 ± 0.08 |
| CCOc1ccc(C[C@@H](NC(=O)CC(S)(CC)CC)C(=O)N[C@@H](Cc2ccccc2)C(=O)N[C@H](C(=O)N[C@@H](CC(N)=O)C(=O)N[C@@H](CC)C(=O)N2CCC[C@H]2C(=O)N[C@@H](CCCNC(=N)N)C(=O)NCC(N)=O)C(C)C)cc1 [(3-ethyl-3-mercapto)valeroyl-D-(O-ethyl)tyrosyl-phenylalanyl-valyl-asparaginyl-(2-amino)butyryl-prolyl-arginyl-glycinamide] (X1-[dY](Et)FVN[Abu]PRG-NH2) | 6.94 ± 0.04 | 7.09 ± 0.09 |
| CCOc1ccc(C[C@@H](NC(=O)CC)C(=O)N[C@@H](Cc2ccccc2)C(=O)N[C@H](C(=O)N[C@@H](CC(N)=O)C(=O)N[C@@H](CC)C(=O)N2CCC[C@H]2C(=O)N[C@@H](CCCNC(=N)N)C(=O)N[C@@H](CCCNC(=N)N)C(N)=O)C(C)C)cc1 [propionyl-D-(O-ethyl)tyrosyl-phenylalanyl-valyl-asparaginyl-(2-amino)butyryl-prolyl-arginyl-argininamide] (Propionyl-[dY](Et)FVN[Abu]PRR-NH2) | 6.71 ± 0.09 | 7.74 ± 0.07 |
